Legend:
[1] = species on record: Bos taurus; assay: Inhibition of bovine liver beta-glucuronidase assessed as reduction of p-nitrophenol release using p-nitrophenyl-glycoside as substrate at 1000 uM by spectrophotometric analysis relative to control
[2] = Inhibition of human lysosomal beta-glucosidase assessed as reduction of p-nitrophenol release using p-nitrophenyl glycoside as substrate by spectrophotometric analysis
[3] = Inhibition of bovine liver beta-galactosidase assessed as reduction of p-nitrophenol release using p-nitrophenyl glycoside as substrate by spectrophotometric analysis; design: species or system Bos taurus
[4] = Inhibition of bovine liver beta-glucosidase assessed as reduction of p-nitrophenol release using p-nitrophenyl glycoside as substrate by spectrophotometric analysis; design: species or system Bos taurus
[5] = target: Beta-glucuronidase (Escherichia coli (strain K12), UniProt P05804); assay: Inhibition of Escherichia coli beta-glucuronidase assessed as reduction of p-nitrophenol release using p-nitrophenyl-glycoside as substrate by spectrophotometric analysis
Sequence of Beta-glucuronidase (P05804 whole entry): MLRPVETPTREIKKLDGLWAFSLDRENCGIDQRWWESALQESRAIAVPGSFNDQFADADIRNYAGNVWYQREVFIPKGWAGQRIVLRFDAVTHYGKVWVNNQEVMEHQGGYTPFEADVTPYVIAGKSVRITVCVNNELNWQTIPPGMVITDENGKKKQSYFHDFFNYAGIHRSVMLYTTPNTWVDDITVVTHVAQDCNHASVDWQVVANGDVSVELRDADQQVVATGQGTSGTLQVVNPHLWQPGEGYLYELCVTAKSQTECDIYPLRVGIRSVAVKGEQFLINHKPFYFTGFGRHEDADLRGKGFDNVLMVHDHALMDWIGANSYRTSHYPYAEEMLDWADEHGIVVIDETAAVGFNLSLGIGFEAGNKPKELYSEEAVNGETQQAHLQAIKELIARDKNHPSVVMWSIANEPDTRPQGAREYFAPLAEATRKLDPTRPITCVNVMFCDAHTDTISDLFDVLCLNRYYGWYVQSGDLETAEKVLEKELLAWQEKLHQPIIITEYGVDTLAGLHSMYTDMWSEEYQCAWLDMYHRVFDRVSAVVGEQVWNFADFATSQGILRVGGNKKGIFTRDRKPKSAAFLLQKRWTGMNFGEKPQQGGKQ

[6] = Inhibition of snail beta-mannosidase assessed as reduction of p-nitrophenol release using p-nitrophenyl glycoside as substrate by spectrophotometric analysis; design: species or system Helix pomatia
[7] = target: Alpha-galactosidase (Coffea arabica) (UniProt Q42656); assay: Inhibition of coffee beans alpha-galactosidase assessed as reduction of p-nitrophenol release using p-nitrophenyl glycoside as substrate at 1000 uM by spectrophotometric analysis relative to control
Sequence of Alpha-galactosidase (Coffea arabica) (Q42656 16-378 limits assumed): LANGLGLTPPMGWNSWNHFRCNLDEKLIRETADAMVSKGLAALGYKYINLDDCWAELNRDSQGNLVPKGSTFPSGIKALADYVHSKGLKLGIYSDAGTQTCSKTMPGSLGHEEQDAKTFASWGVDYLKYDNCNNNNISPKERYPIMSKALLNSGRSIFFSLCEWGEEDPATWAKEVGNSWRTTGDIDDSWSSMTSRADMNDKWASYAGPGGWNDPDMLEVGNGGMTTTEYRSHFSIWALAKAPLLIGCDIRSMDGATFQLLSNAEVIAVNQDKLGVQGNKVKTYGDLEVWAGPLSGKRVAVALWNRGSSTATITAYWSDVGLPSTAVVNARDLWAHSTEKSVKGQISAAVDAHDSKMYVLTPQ

[8] = Inhibition of almond beta-glucosidase assessed as reduction of p-nitrophenol release using p-nitrophenyl glycoside as substrate by spectrophotometric analysis; design: species or system Prunus dulcis
[9] = target: T1, Alpha-mannosidase (Canavalia ensiformis) (UniProt C0HJB3); assay: Inhibition of jack bean alpha-mannosidase assessed as reduction of p-nitrophenol release using p-nitrophenyl glycoside as substrate at 1000 uM by spectrophotometric analysis relative to control
T1 sequence (whole entry): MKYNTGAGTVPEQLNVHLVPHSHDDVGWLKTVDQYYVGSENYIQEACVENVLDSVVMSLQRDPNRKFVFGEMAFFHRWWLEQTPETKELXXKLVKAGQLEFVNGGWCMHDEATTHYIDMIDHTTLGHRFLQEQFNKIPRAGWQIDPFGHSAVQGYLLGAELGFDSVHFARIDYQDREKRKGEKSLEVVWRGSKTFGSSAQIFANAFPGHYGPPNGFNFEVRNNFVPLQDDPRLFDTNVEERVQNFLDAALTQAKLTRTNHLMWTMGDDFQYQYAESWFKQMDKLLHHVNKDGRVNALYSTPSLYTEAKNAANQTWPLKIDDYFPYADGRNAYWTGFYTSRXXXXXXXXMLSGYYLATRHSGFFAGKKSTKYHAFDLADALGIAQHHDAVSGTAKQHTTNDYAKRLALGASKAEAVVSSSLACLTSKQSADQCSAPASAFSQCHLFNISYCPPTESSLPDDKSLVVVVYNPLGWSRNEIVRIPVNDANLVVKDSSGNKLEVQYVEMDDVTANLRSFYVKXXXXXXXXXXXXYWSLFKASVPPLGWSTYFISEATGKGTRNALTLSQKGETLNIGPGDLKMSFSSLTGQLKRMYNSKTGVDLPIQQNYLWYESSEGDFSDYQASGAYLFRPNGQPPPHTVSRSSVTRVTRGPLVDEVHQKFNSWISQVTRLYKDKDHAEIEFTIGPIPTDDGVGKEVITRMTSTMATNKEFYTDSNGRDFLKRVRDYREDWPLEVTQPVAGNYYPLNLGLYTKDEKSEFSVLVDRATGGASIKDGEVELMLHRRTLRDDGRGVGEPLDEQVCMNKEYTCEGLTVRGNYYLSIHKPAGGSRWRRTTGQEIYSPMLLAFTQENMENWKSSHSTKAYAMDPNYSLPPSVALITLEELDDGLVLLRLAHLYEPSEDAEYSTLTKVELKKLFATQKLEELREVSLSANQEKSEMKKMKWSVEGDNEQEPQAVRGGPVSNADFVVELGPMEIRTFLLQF

[10] = species on record: Sus scrofa; assay: Inhibition of porcine kidney alpha/alpha-trehalase assessed as reduction of p-nitrophenol release using p-nitrophenyl glycoside as substrate at 1000 uM by spectrophotometric analysis relative to control
[11] = target: T2, Tissue alpha-L-fucosidase (Bos taurus) (UniProt Q2KIM0); assay: Inhibition of bovine kidney alpha-L-fucosidase assessed as reduction of p-nitrophenol release using p-nitrophenyl glycoside as substrate at 1000 uM by spectrophotometric analysis relative to control
T2 sequence (whole entry): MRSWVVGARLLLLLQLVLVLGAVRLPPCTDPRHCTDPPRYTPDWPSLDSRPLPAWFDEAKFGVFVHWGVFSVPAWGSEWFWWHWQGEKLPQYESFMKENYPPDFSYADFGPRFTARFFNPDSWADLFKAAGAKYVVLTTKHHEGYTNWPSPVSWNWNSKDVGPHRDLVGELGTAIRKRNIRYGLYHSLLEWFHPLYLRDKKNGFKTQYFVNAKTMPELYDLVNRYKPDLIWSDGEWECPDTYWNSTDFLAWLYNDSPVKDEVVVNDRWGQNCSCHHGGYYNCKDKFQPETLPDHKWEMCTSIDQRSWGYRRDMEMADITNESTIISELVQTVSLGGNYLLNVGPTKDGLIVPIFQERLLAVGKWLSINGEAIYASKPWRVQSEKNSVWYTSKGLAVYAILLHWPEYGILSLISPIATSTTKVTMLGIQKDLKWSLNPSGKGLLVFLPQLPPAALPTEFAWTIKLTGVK

[12] = species on record: Rattus norvegicus; assay: Inhibition of rat intestinal maltase assessed as D-glucose release using maltose as substrate at pH 6.8 at 1000 uM by colorimetric method relative to control
[13] = tested on: Oryza sativa; assay: Inhibition of rice alpha-glucosidase assessed as reduction of p-nitrophenol release using p-nitrophenyl glycoside as substrate at 1000 uM by spectrophotometric analysis relative to control
[14] = Inhibition of Aspergillus niger amyloglucosidase assessed as reduction of p-nitrophenol release using p-nitrophenyl-glycoside as substrate by spectrophotometric analysis
[15] = target: Alpha-glucosidase (Saccharomyces cerevisiae S288c) (UniProt P53341+P38158+P07265); assay: Inhibition of yeast alpha-glucosidase assessed as reduction of p-nitrophenol release using p-nitrophenyl glycoside as substrate at 1000 uM by spectrophotometric analysis relative to control; format: protein assay
[16] = tested on: Penicillium decumbens; assay: Inhibition of Penicillium decumbens alpha-L-rhamnosidase assessed as reduction of p-nitrophenol release using p-nitrophenyl-glycoside as substrate at 1000 uM by spectrophotometric analysis relative to control
[17] = target: Beta-glucuronidase (Escherichia coli (strain K12)) (UniProt P05804); assay: Inhibition of Escherichia coli beta-glucuronidase assessed as reduction of p-nitrophenol release using p-nitrophenyl-glycoside as substrate at 1000 uM by spectrophotometric analysis relative to control
Sequence of Beta-glucuronidase (Escherichia coli (strain K12)) (P05804 whole entry, looked up): as the sequence (P05804 whole entry) above

[18] = tested on: Helix pomatia; assay: Inhibition of snail beta-mannosidase assessed as reduction of p-nitrophenol release using p-nitrophenyl glycoside as substrate at 1000 uM by spectrophotometric analysis relative to control
[19] = Inhibition of rat intestinal maltase assessed as D-glucose release using maltose as substrate at pH 6.8 by colorimetric method
[20] = tested on: Aspergillus niger; assay: Inhibition of Aspergillus niger amyloglucosidase assessed as reduction of p-nitrophenol release using p-nitrophenyl-glycoside as substrate at 1000 uM by spectrophotometric analysis relative to control
[21] = tested on: Prunus dulcis; assay: Inhibition of almond beta-glucosidase assessed as reduction of p-nitrophenol release using p-nitrophenyl glycoside as substrate at 1000 uM by spectrophotometric analysis relative to control
[22] = Inhibition of rice alpha-glucosidase assessed as reduction of p-nitrophenol release using p-nitrophenyl glycoside as substrate by spectrophotometric analysis; design: species or system Oryza sativa
[23] = target: Alpha-glucosidase (Saccharomyces cerevisiae S288c, UniProt P53341+P38158+P07265); assay: Inhibition of yeast alpha-glucosidase assessed as reduction of p-nitrophenol release using p-nitrophenyl glycoside as substrate by spectrophotometric analysis; format: protein assay

inhibition [1] [%] | IC50 [2] [µM] | IC50 [3] [µM] | IC50 [4] [µM] | IC50 [5] [µM] | IC50 [6] [µM] | inhibition [7] [%] | IC50 [8] [µM] | inhibition [9] [%] | inhibition [10] [%] | inhibition [11] [%] | inhibition [12] [%] | inhibition [13] [%] | IC50 [14] [µM] | inhibition [15] [%] | inhibition [16] [%] | inhibition [17] [%] | inhibition [18] [%] | IC50 [19] [µM] | inhibition [20] [%] | SMILES | also measured
7.1 | 3.3 | 0.005 | 0.009 | 36 | 20 | 8.6 | 0.15 | 13.9 | 0 | – | 24.2 | 10.2 | 30 | – | 4.1 | – | – | – | – | Cl.OC[C@H]1N[C@H]([C@H](O)CCCCCCc2ccc(F)cc2)[C@@H](O)[C@@H]1O | IC50 [23]: 83 µM
0 | 96 | 2.5 | 4.1 | – | – | 3.6 | 89 | 7.9 | 0 | 5.9 | – | – | – | 17.3 | 2.9 | 8.9 | 3.3 | 0.88 | 0 | Cc1ccc(CCCCCC[C@H](O)[C@@H]2N[C@@H](CO)[C@H](O)[C@H]2O)cc1 | IC50 [22]: 1.5 µM
0 | 61 | 0.62 | 1.1 | – | – | 3.6 | 35 | 0 | 0 | 0 | – | – | – | 11.8 | 1.7 | 6.2 | 1.2 | 0.7 | 11.8 | OC[C@@H]1N[C@@H]([C@@H](O)CCCCCCc2ccc(F)cc2)[C@H](O)[C@H]1O | IC50 [22]: 3 µM
0 | 66 | 11 | 37 | – | – | 1.6 | – | 4.8 | 0 | 1.5 | – | – | – | 36.2 | 2.5 | 14.1 | 2.9 | 35 | 0 | OC[C@@H]1N[C@@H]([C@H](O)CCCCCCc2ccc(F)cc2)[C@H](O)[C@H]1O | inhibition [21]: 27.4%; IC50 [22]: 92 µM

More lines, now with the values behind:

SMILES | inhibition [1] [%] | IC50 [2] [µM] | IC50 [3] [µM] | IC50 [4] [µM] | IC50 [5] [µM] | IC50 [6] [µM] | inhibition [7] [%] | IC50 [8] [µM] | inhibition [9] [%] | inhibition [10] [%] | inhibition [11] [%] | inhibition [12] [%] | inhibition [13] [%] | IC50 [14] [µM] | inhibition [15] [%] | inhibition [16] [%] | inhibition [17] [%] | inhibition [18] [%] | IC50 [19] [µM] | inhibition [20] [%] | also measured
CC(C)(C)c1ccc(CCCCCC[C@H](O)[C@H]2N[C@H](CO)[C@@H](O)[C@@H]2O)cc1 | 0 | 3.2 | 0.014 | 0.05 | 23 | 96 | 0.9 | 0.36 | 0 | 0 | 0 | 14.1 | 48.6 | 63 | 27.6 | 6.2 | – | – | – | – | –
OC[C@H]1N[C@H]([C@H](O)CCCCCCc2ccc(Cl)cc2)[C@@H](O)[C@@H]1O | 0 | 2.1 | 0.003 | 0.005 | 41 | 37 | 0 | 0.12 | 4.5 | 6 | 0.6 | 18.2 | 8.9 | 32 | 42.3 | 1.3 | – | – | – | – | –
Cc1ccc(CCCCCC[C@@H](O)[C@H]2N[C@H](CO)[C@@H](O)[C@@H]2O)cc1 | 0 | 1.1 | 0.002 | 0.003 | 13 | 32 | 0.9 | 0.082 | 5.9 | 0 | 0 | 10.5 | 15 | 23 | 23.5 | 7 | – | – | – | – | –
OC[C@@H]1N[C@@H]([C@@H](O)CCCCCCc2ccc(Cl)cc2)[C@H](O)[C@H]1O | 0 | 5.9 | 3.2 | 8 | – | – | 3.6 | – | 0 | 0 | 6.3 | – | – | – | 10 | 0 | 6.8 | 0 | 0.33 | 0 | inhibition [21]: 37.1%; IC50 [22]: 4.3 µM
CC(C)(C)c1ccc(CCCCCC[C@H](O)[C@@H]2N[C@@H](CO)[C@H](O)[C@H]2O)cc1 | 0 | 32 | 3.9 | 7.7 | – | – | 2.6 | – | 0.8 | 0.9 | 0 | – | – | – | 9.6 | 4.2 | 15.5 | 0 | 0.65 | 7.1 | inhibition [21]: 44.7%; IC50 [22]: 0.86 µM
Cl.OC[C@H]1N[C@H]([C@H](O)CCCCCCc2ccc(F)c(F)c2)[C@@H](O)[C@@H]1O | 4.3 | 2.7 | 0.004 | 0.007 | 21 | 16 | 17.2 | 0.53 | 16.6 | 1.4 | – | 42.5 | 43.4 | 11 | – | 27 | – | – | – | – | IC50 [23]: 87 µM
